Results as given in patent US20240122926A1, “APELIN RECEPTOR MODULATORS FOR TREATING MUSCLE CONDITIONS” (priority 2022, published 2024).
“Also recorded” adds a separate entry of the source. Read-outs that look alike come from different tables or passages of the source.

Columns and labels:
mouse APLNR = target: T1, mouse APLNR (Mus musculus, UniProt Q9WV08); test: PathHunter β-arrestin eXpress GPCR assay, CHO cells stably expressing mouse APLNR; type: cell-based; conditions: for Emax: CHO
T1 construct: host or cells: CHO cells
T1 sequence (Q9WV08 1-377): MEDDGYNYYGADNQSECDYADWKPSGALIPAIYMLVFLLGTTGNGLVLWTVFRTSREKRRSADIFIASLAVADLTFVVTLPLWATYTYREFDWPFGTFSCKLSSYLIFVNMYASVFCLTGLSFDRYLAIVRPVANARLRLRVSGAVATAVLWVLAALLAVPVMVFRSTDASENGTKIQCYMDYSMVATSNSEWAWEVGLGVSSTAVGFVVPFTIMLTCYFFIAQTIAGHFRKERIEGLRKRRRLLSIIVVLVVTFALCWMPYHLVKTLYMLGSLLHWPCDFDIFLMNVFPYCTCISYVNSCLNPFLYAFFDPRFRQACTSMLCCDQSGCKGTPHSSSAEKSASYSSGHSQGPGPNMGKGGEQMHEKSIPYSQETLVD
Method: APLNR activation was determined by β-arrestin recruitment as measured by the ProLink […] complementation technology (93-0001, DiscoveRx). In brief, CHO cells stably expressing APLNR were seeded and incubated overnight at 37° C. The compounds were tested in duplicate and diluted to obtain a 10-point curve with 3-fold serial dilutions (<1% DMSO). The compounds and cells were incubated for 3 hours at 37° C. After the incubation period the detection reagents were added and the plate chemiluminescent signal was measured after 30 min at RT.

[1] = 9-month oral toxicity study in dogs; type: in vivo, dog
Method: The updated exposure margins considering the highest maximum exposures in rats and dogs are calculated as follows: maximum exposure in the rat (male) was in the 14-day IV study and at the 300 mg/kg dose, the AUClast is 1070 μg*hr/mL; maximum exposure in dogs occurred at the 300 mg/kg dose in the 9-month oral toxicity study and the AUClast is 1310*μg·hr/mL.

[2] = system: healthy volunteers aged ≥65 years; test: Phase 1b bed rest study, safety (TEAEs); type: in vivo
Method: Adverse events are coded using the Medical Dictionary for Regulatory Activities. The number of events, incidence, and percentage of TEAEs are calculated overall by system organ class, preferred term, and treatment group for each cohort and treatment group. The number and percentage of subjects with TEAEs are further summarized by severity and relationship to study drug. AEs related to study drug, AEs leading to withdrawal, SAEs, and deaths are also similarly summarized and/or listed in a similar manner.

serum proteome = test: Phase 1b bed rest study, serum proteomic profiling; type: in vivo, human
Method: Proteomic profiling and analysis were performed on serum collected from the phase 1B clinical trial subjects (treated vs placebo) as described above. Eleven (11) treated and 10 placebo subject's serum levels were profiled for their proteomics collected at day −1 (baseline), day 5 and day 11. A linear regression model was implemented with an interaction term between treatment group and day to identify proteins whose differential abundance between the treatment groups influenced the average rate of change per day of a given protein. This model was fit separately for all proteins measured, and the resulting coefficient (on the interaction term) for each protein was used to rank order all proteins from most positive to most negative coefficient.
For each human aging cohort phenotype (various physical function phenotypes and mortality), two protein sets consisting respectively (to preserve directionality) of the proteins positively and negatively associated (p<0.05) with that phenotype. Significant phenotypes in the right-hand graph of FIG. 48 and FIG. 49 with their GSEA plots and p-values (significant phenotypes were not shown when their protein sets overlapped substantially with those of already shown phenotypes).

COc1cccc(OC)c1-n1c(NS(=O)(=O)[C@@H](C)[C@H](C)c2ncc(C)cn2)nnc1-c1cncc(C)c1 [BGE-105, (2S,3R)—N-(4-(2,6-dimethoxyphenyl)-5-(5-methyl-3-pyridinyl)-4H-1,2,4-triazol-3-yl)-3-(5-methyl-2-pyrimidinyl)-2-butanesulfonamide]
EC50 (mouse APLNR): 0.8 nM | Emax (mouse APLNR; read-out: maximum effect (Emax)): 65% | Emax (mouse APLNR; read-out: maximum effect (Emax), replication): 60% | predicted human exposure margin Human:Dog ([1]; 240 mg loading dose + 1440 mg IV for 22 hours, 1036/1310): 0.79 | NOAEL ([1]; dog): maximum dose tested | AUC(0-t) ([1]; dog, in vivo, dogs, 9-month oral toxicity study, 300 mg/kg, read-out: AUClast, maximum exposure): 1310 µg·h/mL | number of volunteers (out of 11) exhibiting TEAEs ([2]; Cohort 1B): 7 | percent of volunteers exhibiting TEAEs ([2]; Cohort 1B): 64% | serious / severe adverse effects ([2]; Phase 1b bed rest study): no serious adverse effects; also recorded: no severe adverse effects | tolerability ([2]; Phase 1b bed rest study): well tolerated | number of proteins associated with grip strength (out of 379) changed by treatment (serum proteome): 58 | number of proteins associated with walk speed (out of 526) changed by treatment (serum proteome): 35 | number of proteins associated with frailty (out of 992) changed by treatment (serum proteome; p<0.05): 69
